“Also recorded” adds a separate entry of the source.
Experiments:
[1] = test system: subcutaneous β3-positive tumors (FG-β3, FG-R); assay: Subcutaneous β3-positive tumors in mice; conditions: for tumor growth, monotherapy: lenalidomide 25 mg/kg/day or bortezomib 0.25 mg/kg alone; for tumor growth in vivo, combination with erlotinib: with erlotinib 25 mg/kg/day, lenalidomide 25 mg/kg/day (FG-β3) or bortezomib 0.25 mg/kg (FG-R)
Method: FG pancreatic carcinoma cells (1×10^6 tumor cells in 30 μl of PBS) were injected into the pancreas of 6- to 8-week-old male nude mice as previously described (10). Tumors were established for 2-3 weeks (tumor sizes were monitored by ultrasound) before beginning dosing. […] FG pancreatic carcinoma cells (1×10^6 tumor cells in 30 μl of PBS) were injected into the pancreas of 6- to 8-week-old male nude mice as previously described (10). Tumors were established for 2-3 weeks (tumor sizes were monitored by ultrasound) before beginning dosing. […] Tumors were measured every 2-3 days with calipers until they were harvested at day 10,16 or after acquired resistance.
Tumor dimensions are reported as the fold change relative to size of the same tumor on Day 1. Mean±SEM, (A) *P=0.042 using a one way ANOVA test. n=6 mice per group. […] Tumor dimensions are reported as the fold change relative to size of the same tumor on Day 1. *P=0.0134 using a one way ANOVA test. n=8 mice per group.

[2] = test system: panel of human carcinoma cell lines; assay: Tumorsphere assay (Example 2); format: cell-based; conditions: for tumorsphere formation in vitro, combination with erlotinib: β3-positive cells (FG-β3, PANC-1, A549), erlotinib 0.5 μM with lenalidomide 1-2 μM or bortezomib 4 nM; for impact of integrin β3 expression on resistance: β3-negative vs β3-positive cells
Method: Tumorsphere assay was performed as previously described (10). […] The media was replaced with fresh inhibitor 2/6 times a week. Survival curves were generated at least with five concentration points.

[3] = test system: β3-positive cells (FG-β3, MDA-MB231, FG-R); assay: Anchorage independent growth in soft agar, NFkB inhibitors with erlotinib (FIG. 31); format: cell-based, human; conditions: Lenalidomide 2 μM, PS-1145 1 μM, 10 to 15 days; for response of colonies / tumorsphere formation to single agent: β3-positive cells (intrinsic or acquired resistant), each agent alone: erlotinib 0.5 μM; for tumorsphere formation, combination with erlotinib: β3-positive cells, in combination with erlotinib 0.5 μM
From the text: Then, the soft agar were stained with crystal violet and the colonies were counted manually.

FG and FG-β3 cells = assay: Tumor sphere formation assay (Example 1); format: cell-based, human; conditions: for effect of αvβ3 expression on drug resistance (tumor sphere formation): FG lacking β3 vs FG-β3, in vitro
Method: (§1) Tumor spheres formation assays were performed essentially as described previously^17. […] Colonies were stained with crystal violet and scored with an Olympus SZH10 microscope. Survival curves were generated at least with five concentration points.

[4] = test system: β3-positive and β3-negative tumor cells (FG, PANC-1); assay: Self renewal tumorsphere assay and soft agar assay, 3D (Example 3); format: cell-based, human; conditions: β3 ectopic expression (FG) or knockdown (PANC-1)
Method: Tumorsphere assay was performed as previously described. Soft agar formation assays were performed essentially as described previously. […] The media was replaced with fresh inhibitor 2/5 times a week. Survival curves were generated at least with five concentration points. […] Cells were treated with a dose response of gemcitabine, cisplatin, erlotinib, lapatinib and linsitinib. […] Tumor volumes are expressed as mean±SEM. *P<0.05. […] Results are expressed as % tumor weight compared to vehicle control. *P<0.05. […] Data are mean±SE; **P<0.001. […] Scale bar, 50 μm.

[5] = test system: subcutaneous A549 xenografts; assay: Subcutaneous A549 xenografts, integrin β3 knockdown; format: in vivo, mice; conditions: A549 shCTRL vs sh β3, erlotinib 25 mg/kg/day, 16 days
From the text: (A) Immunoblots showing integrin β3 knockdown efficiency in cells used in FIG. 1. […] Tumor volumes are expressed as mean±SEM. n=8 mice per group. (C) Immunoblots showing expression of indicated proteins of representative tumors. […] (E) Effect of integrin β3 expression on lapatinib, OSI-906, cisplatin and gemcitabine n=3; mean±SEM. (F) Viability assay (CellTiter-Glo assay) of FG and FG-β3 cells grown in suspension in media with or without serum. n=2; mean+SEM. *P<0.05. **P<0.01.
(a) Effect of integrin β3 expression (ectopic expression for FG and integrin β3-specific knockdown for PANC-1) cells on drug treatment response. Cells were treated with a dose response of gemcitabine, cisplatin, erlotinib, lapatinib and linsitinib. […] Tumor volumes are expressed as mean±SEM. *P<0.05. […] Results are expressed as % tumor weight compared to vehicle control. *P<0.05. […] (f) Relative mRNA expression of integrin β3 (ITGB3) in HCC827 vehicle-treated tumors (n=5) or erlotinib-treated tumors (n=7) from (e) after acquired resistance. Data are mean±SE; **P<0.001. […] Scale bar, 50 μm. […] The HCC827 erlotinib-treated tumors have been digested and sorted in two groups: the integrin β3− and the integrin β3+ population.

[6] = test system: H441 human lung adenocarcinoma orthotopic tumors; assay: Orthotopic lung cancer xenograft model; format: in vivo, mice
Method: FG pancreatic carcinoma cells (1×10^6 tumor cells in 30 μl of PBS) were injected into the pancreas of 6- to 8-week-old male nude mice as previously described (10). Tumors were established for 2-3 weeks (tumor sizes were monitored by ultrasound) before beginning dosing. […] H441 lung adenocarcinoma cells were generated as previously described (21). […] FG pancreatic carcinoma cells (1×10^6 tumor cells in 30 μl of PBS) were injected into the pancreas of 6- to 8-week-old male nude mice as previously described (10). Tumors were established for 2-3 weeks (tumor sizes were monitored by ultrasound) before beginning dosing. […] H441 lung adenocarcinoma cells were generated as previously described (21). […] Tumors were measured every 2-3 days with calipers until they were harvested at day 10,16 or after acquired resistance.

[7] = test system: phosphorylated TBK1 and NF-κB; assay: Immunoblot analysis of RalB effectors in cells grown in suspension and treated with erlotinib; format: cell-based, human; conditions: αvβ3 negative cells, erlotinib 0.5 μM
Method: Cells were lysed in either RIPA lysis buffer (50 mM Tris pH 7.4, 100 mM NaCL, 2 mM EDTA, 10% DOC, 10% Triton, 0.1% SDS) or Triton lysis buffer (50 mM Tris pH 7.5, 150 mN NaCl, 1 mM EDTA, 5 mM MgCl2, 10% Glycerol, 1% Triton) supplemented with complete protease and phosphatase inhibitor mixtures (Roche) and centrifuged at 13,000 g for 10 min at 4° C. Protein concentration was determined by BCA assay. 500 μg to 1 mg of protein were immunoprecipitated with 3 μg of anti-integrin αvβ-3 (LM609) overnight at 4° C. following by capture with 25 μl of protein A/G (Pierce). Beads were washed five times, eluted in Laemmli buffer, resolved on NuPAGE 4-12% Bis-Tris Gel (Invitrogen) and immunoblotting was performed with anti-integrin β3 (Santa Cruz), anti-RalB (Cell Signaling Technology), anti KRAS (Santa Cruz). For immunoblot analysis, 25 of protein was boiled in Laemmli buffer and resolved on 8% to 15% gel. […]

[8] = test system: orthotopic FG pancreatic tumors; assay: Orthotopic pancreas cancer xenograft model; format: in vivo, mice
Method: All mouse experiments were carried out in accordance with approved protocols from the UCSD animal subjects committee and with the guidelines set forth in the NIH Guide for the Care and Use of Laboratory Animals. Tumors were generated by injection of FG human pancreatic carcinoma cells (10^6 tumor cells in 30 μL of sterile PBS) into the tail of the pancreas of 6-8 week old male immune compromised nu/nu mice.
Tumors were generated as previously described (JAY).

HCC827 xenograft tumors = HCC827 xenograft tumors treated until acquired resistance; format: in vivo, mice; conditions: erlotinib 12.5 mg/kg/day until acquired resistance
From the text: Tumor volumes are expressed as mean±SEM. *P<0.05. […] Results are expressed as % tumor weight compared to vehicle control. *P<0.05. […] Data are mean±SE; **P<0.001. […] Scale bar, 50 μm.

[9] = test system: HCC827 human lung cancer cells; assay: Circulating tumor cells from orthotopic HCC827 lung tumors (FIG. 30); format: in vivo, mice; conditions: orthotopic HCC827, 3 months at 25 mg/kg/day
From the text: FIG. 30 illustrates data showing integrin β3 (CD61) is a RTKI (Receptor Tyrosine Kinase (RTK) Inhibitor) drug resistance biomarker on the surface of circulating tumor cells; as discussed in detail in Example 2, below.

[10] = test system: stage IV non-small cell lung cancer; assay: Serial biopsies from NSCLC patients on erlotinib therapy; format: in vivo, human
Method: All biopsies are from lung or pleural effusion. […] This work was approved by the UCSD Institutional Review Board (IRB).
Immunostaining was performed according to the manufacturer's recommendations (Vector Labs) on […] sections of paraffin-embedded tumors from tumor biopsies from lung cancer patients. Tumor sections were processed as previously described (23) using integrin β3 (Abcam clone EP2417Y). Sections stained with integrin β3 were scored by a H-score according to the staining intensity (SI) on a scale 0 to 3 within the whole tissue section.

PANC-1 cells = assay: Tumor sphere formation assay, knockdown of αvβ3 (Example 1); format: cell-based, human
Method: as §1, with “previously^17. Briefly, cells were seeded at 1000 to 2000 cells per well and grown for 12 days to 3 weeks.” for “previously^17.”

integrin αvβ3 (CD61) = assay: Flow cytometry of αvβ3 after prolonged EGFR TKI exposure in vitro; format: cell-based, human; conditions: FG, Miapaca-2 and other erlotinib sensitive lines, weeks of treatment
Method: Human pancreatic (FG, PANC-1, Miapaca-2 (MP2), CFPAC-1, XPA-1, CAPAN-1, BxPc3), breast (MDAMB231, MDAMB468 (MDA468), BT20, SKBR3, BT474), colon (SW480) and lung (A549, H441) cancer cell lines were grown in ATCC recommended media supplemented with 10% fetal bovine serum, glutamine and non-essential amino acids. We obtained FG-β3, FG-D119A mutant and PANC-shβ3 cells as previously described^17. […] Cisplatin was generated from Sigma-Aldrich. Lenalidomide was purchased from LC Laboratories.
200,000 cells, after drug or vehicle treatment, were washed with PBS and incubated for 20 minutes with the Live/Dead reagent (Invitrogen) according to the manufacturer's instruction, then, cells were fixed with 4% paraformaldehyde for 15 min and blocked for 30 min with 2% BSA in PBS. Cells were stained with fluorescent-conjugated antibodies to CD61 (LM609), CD44 (eBioscience), CD24 (eBioscience), CD34 (eBioscience), CD133 (Santa Cruz), CD56 (eBioscience), CD29 (P4C10) and CD49f (eBioscience). All antibodies were used at 1:100 dilutions, 30 minutes at 4° C. After washing several times with PBS, cells were analyzed by FACS.

[11] = systemic erlotinib treatment for 7-8 weeks

`Nc1cccc2c1CN(C1CCC(=O)NC1=O)C2=O` (racemic) [lenalidomide, (RS)-3-(4-amino-1-oxo-3H-isoindol-2-yl)piperidine-2,6-dione] was tested, and the “tumor growth, monotherapy” value [1] was “failed to impact tumor growth”, the “tumor growth in vivo, combination with erlotinib” value [1] was “completely suppressed tumor growth” and the “tumorsphere formation in vitro, combination with erlotinib” value [2] was “decreased tumorsphere formation”. The “response of colonies / tumorsphere formation to single agent” value [3] was “resistant” and the “tumorsphere formation, combination with erlotinib” value [3] was “decreased tumorsphere formation”.
For `C[C@]1(O)C[C@@H](c2nc(-c3ccc4ccc(-c5ccccc5)nc4c3)c3c(N)nccn32)C1` [OSI-906], the “effect of αvβ3 expression on drug resistance (tumor sphere formation)” value (shortened to “effect of αvβ3 expression”) (FG and FG-β3 cells) was “induced resistance” and the “effect of β3 expression on drug response, cells growing in 3D” value (from here on “effect of β3 expression on drug response”) [4] was “reduced sensitivity”.
With `O=C(Nc1cc(Cl)cc2c1[nH]c1cnccc12)c1cccnc1` [PS-1145] the “response of colonies / tumorsphere formation to single agent” value [3] was “resistant” and the “tumorsphere formation, combination with erlotinib” value [3] was “decreased tumorsphere formation”.
In the case of `CC(C)C[C@H](NC(=O)[C@H](Cc1ccccc1)NC(=O)c1cnccn1)B(O)O` [bortezomib], the “tumor growth, monotherapy” value [1] is reported as “failed to impact tumor growth”, the “tumor growth in vivo, combination with erlotinib” value [1] is reported as “completely suppressed tumor growth” and the “tumorsphere formation in vitro, combination with erlotinib” value [2] is reported as “decreased tumorsphere formation”.
`N.N.[Cl][Pt][Cl]` [cisplatin] was tested, and the “effect of αvβ3 expression” value (FG and FG-β3 cells) was “failed to protect cells”, the “effect of β3 expression on drug response” value [4] was “did not impact the response” and the “impact of integrin β3 expression on resistance” value [2] was “did not impact resistance”.
`C#Cc1cccc(Nc2ncnc3cc(OCCOC)c(OCCOC)cc23)c1` [erlotinib, N-(3-ethynylphenyl)-6,7-bis(2-methoxyethoxy) quinazolin-4-amine] was tested, and the “erlotinib resistance after knockdown of integrin β3” value [5] was “overcame erlotinib resistance”, the “erlotinib resistance, ligation competent vs incompetent integrin αvβ3” value (FG and FG-β3 cells; FG cells transfected with WT β3 or D119A mutant) was “same degree of erlotinib resistance” and the “effect of αvβ3 expression” value (FG and FG-β3 cells) was “dramatically increased erlotinib resistance”. For the same compound, the “effect of β3 expression on drug response” value [4] was “reduced sensitivity”, the time until moribund ([6]; erlotinib 100 mg/kg/day by oral gavage, start 3 weeks after tumor cell injection) was ~58 days and the development of resistance [6, 11] was “developed resistance”. For the same compound, the “integrin αvβ3 expression compared with vehicle-treated tumors” value [6, 11] was “qualitative increase in integrin αvβ3 expression”, the “levels / activation of phosphorylated TBK1 and NF-κB” value [7] was “reduced; also recorded: decreased the activation” and the “erlotinib resistance of orthotopic pancreatic tumors with ectopic β3 expression” value ([8]; FG vs FG-β3 orthotopic tumors, systemic treatment) was “dramatically increased erlotinib resistance; also recorded: conferred erlotinib resistance”. The “increase in αvβ3 expression” value ([8]; orthotopic FG pancreatic tumors, four weeks of erlotinib treatment) was 10 fold, the “EGFR phosphorylation in tumor lysates (immunoblot)” value ([8]; orthotopic FG tumors after 10 days of erlotinib) was “suppressed EGFR phosphorylation” and the “integrin β3 expression in erlotinib resistant vs vehicle-treated tumors” value (HCC827 xenograft tumors) was “significantly higher”. For the same compound, the “αvβ3 (CD61) status of human lung cancer cells detected in the circulation” value [9] was “positive for αvβ3”, the erlotinib response ([2]; H1650 cells, wildtype KRAS and mutant EGFR) was “resistant” and the erlotinib response ([2]; tumor cell lines with oncogenic KRAS: FG, H441, and CAPAN1) was “sensitive”. For the same compound, the “disease progression after days of erlotinib therapy” value (shortened to “disease progression after days”) ([10]; Patient 1) was 920 days, the “disease progression after days” value ([10]; Patient 2) was 92 days and the “disease progression after days” value ([10]; Patient 3) was 120 days. For the same compound, the initial response ([10]; all 3 patients) was “partial response”, the “integrin β3 expression in biopsies after vs before erlotinib resistance” value ([10]; paired lung tumor biopsies, immunohistochemistry) was “qualitative increase in integrin β3 expression; also recorded: qualitatively higher” and the “increase in tumor cell sensitivity to erlotinib after knockdown of αvβ3” value (PANC-1 cells) was 10 fold. The “response of colonies / tumorsphere formation to single agent” value [3] was “resistant” and the “integrin αvβ3 / β3 expression after prolonged erlotinib exposure in vitro” value (integrin αvβ3 (CD61)) was “the greater the expression level of αvβ3; also recorded: induction of β3 expression”.
In the case of `Nc1ccn([C@@H]2O[C@H](CO)[C@@H](O)C2(F)F)c(=O)n1` [gemcitabine], the “effect of αvβ3 expression” value (FG and FG-β3 cells) is reported as “failed to protect cells”, the “effect of β3 expression on drug response” value [4] is reported as “did not impact the response” and the “impact of integrin β3 expression on resistance” value [2] is reported as “did not impact resistance”.
`CS(=O)(=O)CCNCc1ccc(-c2ccc3ncnc(Nc4ccc(OCc5cccc(F)c5)c(Cl)c4)c3c2)o1` [lapatinib] was tested, and the “effect of β3 expression on drug response” value [4] was “reduced sensitivity”.
